Test results reported in patent US6953813B1, “2-Aminotetralin derivatives for the therapy of glaucoma” (Chiesi Farmaceutici S.p.A., priority 1999, dated 2005).

Legend:
pKa = assay type: physicochemical
Excerpt: The higher apparent partition coefficient would be more favorable for ophthalmic absorption. However, an acid aqueous solution should be used as a vehicle for eyedrop administration due to the better chemical stability of CHF 1035 in such pH range. The theoretical log Papp of the corresponding not esterified derivative turned out to be −0.9 at pH 7.4.

[1] = system: normotensive Dutch Belted rabbits; assay: Eye irritation by extent of eyelid closure after topical eyedrop; assay type: in vivo, rabbit; conditions: single dose 25 μl of 0.5%, 0.2%, 0.05% and 0.01% solution
Procedure: The experimental animals used were normotensive Dutch Belted rabbits of either gender (n=6). A single drop (25 μl) of the test solution was instilled unilaterally into the left eye (treated eye). IOP of the rabbits (treated and untreated eyes) was measured at 1 and 0 h before, and at 0.5, 1, 2, 3, 4, 5, 6 and 7 h after topical eyedrop administration. IOP at the time of eyedrop administration (0 h) was used as a baseline value. IOP was measured using a BioRad Pneumatonometer. More detailed description of the IOP measurement procedure can be found in Pharm. Res. 14, 1738-1743, 1997 and Curr. Eye Res. 14, 791-797, 1995. All the studies were set up using a randomized crossover design. At least 72 h of wash-out time was allowed for each rabbit between dosings. The irritation caused by an instilled eyedrop were evaluated by recording the extent of eyelid closure after topical eyedrop administration.

[2] = system: New-Zealand albino rabbits; assay: IOP after single dose in rabbits with water-increased IOP; assay type: in vivo, rabbit; conditions: two drops of 5% solution per eye, one hour before 200 ml oral water
Procedure: A study versus placebo was carried out in 20 New-Zealand albino rabbits to evaluate the effects of CHF 1035 after single administration. Basal intraocular pressure (IOP) was measured in anaesthetized rabbits in both eyes. Each eye received two drops of physiological solution containing 5% of the drug. Control animals received only physiological solution. After one hour, the animals were administered by oral route with a total amount of 200 ml of distilled water. IOP increased within about one hour and normalized after about 3 hours. As no differences in IOP were observed between the two eyes, the respective tonometric curves were superimposed. IOP measurements were carried out by using a Goldman tonometer and were repeated one hour after the administration of water.
Values are expressed as mean (SE^132 1.6-2.7). The total number of eyes per group is in brackets.

[3] = system: New-Zealand albino rabbits; assay: IOP after repeated administration in rabbits with α-chymotrypsin-increased IOP; assay type: in vivo, rabbit; conditions: two drops of 5% solution per eye every 6 hours
Procedure: The effectiveness of CHF 1035 after repeated administration was tested in a study versus placebo, in 20 New-Zealand albino rabbits. In order to induce a chronic increase of the IOP, each animal was intraocularly injected with 0.5 mg/day of α-chymotrypsin for five days. Starting from the first day of treatment, two drops of physiological saline containing 5% of the drug were instilled in each eye every 6 hours. The control animals only received physiological saline.
The IOP measurement was performed as described in example 1, before the injection and subsequently every day until the 10th day.
FIG. 2 reports the effect of CHF 1035 on rabbit IOP after α-chymotrypsin injection. Values are reported as mean (SE=1.2-2.6; n=20 per group).

SMILES: CNC1CCc2c(ccc(OC(=O)C(C)C)c2OC(=O)C(C)C)C1 (racemic) [CHF 1035, (±)-(R,S)-5,6-diisobutyryloxy-2-methylaminotetralin]
- pKa (pKa): 9.4
- eye irritation (eyelid closure) [1]: no eyelid closure was observed
- IOP after water loading versus control animals [2]: IOP value significantly lower than control animals
- tolerability during the whole cycle of treatment [3]: well tolerated during the whole cycle of treatment and induced no eye irritation and/or discomfort
- IOP after α-chymotrypsin injection versus placebo ([3]; up to 10th day): significantly lower IOP than animals treated with placebo
